In patent US20220330549A1, “USE OF N-BENZYLBENZAMIDE-BASED COMPOUND AS HERBICIDE” (Northwest A&F University, priority 2020, published 2022):

Assays:
Format in all cases: in vivo
Barnyard grass [1] = assay: Herbicidal activity test for indoor pre-emergence soil treatment; parameters: key: level 1-9; higher = more weed remaining vs blank control; details: 150 g a.i./ha, visual inspection 21 days after treatment
Method: (§1) The herbicidal activity test for indoor pre-emergence soil treatment was performed with some of the N-benzylbenzamide-based compounds of general formula I or II with reference to the method of NY/T 1155.3-2006. Neutral sandy loam soil having an organic content of ≤2% was added to fill ⅘ of the pot, and the soil was completely moistened by infiltrating irrigation from the bottom of the pot. The seeds of the test weed were evenly spread on the soil surface, and then covered by 0.5 cm to 2.0 cm of soil depending on the seed size. Representative compounds in the examples were used to prepare emulsifiable concentrates (10%), and spray treatments to the soil were performed 24 hours after the sowing with the test agents diluted with water, at a spraying dosage of 150 g(a.i.)/ha. Then, the results were investigated by visual inspection 21 days after the treatments. The herbicidal activity of the agent was evaluated on a scale of 1-9 levels according to the symptoms and severity of damage to the test weeds.
(§2) Level 2: equivalent to 0 to 2.5% of the weed in the blank control area;
(§3) Level 3: equivalent to 2.6 to 5% of the weed in the blank control area;
(§4) Level 4: equivalent to 5.1 to 10% of the weed in the blank control area;
(§5) Level 5: equivalent to 10.1 to 15% of the weed in the blank control area;
(§6) Level 6: equivalent to 15.1 to 25% of the weed in the blank control area;
(§7) Level 7: equivalent to 25.1 to 35% of the weed in the blank control area;
(§8) Level 8: equivalent to 35.1 to 67.5% of the weed in the blank control area; and
(§9) Level 9: equivalent to 67.6 to 100% of the weed in the blank control area.

Piemarker [2] = assay: as above; parameters: key: level 1-9; higher = more weed remaining vs blank control; details: 150 g a.i./ha, visual inspection 21 days after treatment
Method: as §1, §2, §3, §4, §5, §6, §7, §8, §9

green bristlegrass [3] = assay: as above; parameters: key: level 1-9; higher = more weed remaining vs blank control; details: 150 g a.i./ha, visual inspection 21 days after treatment
Method: as §1, §2, §3, §4, §5, §6, §7, §8, §9

Amaranthus retroflexus [4] = assay: as above; parameters: key: 1-9 levels; higher = more weed remaining vs blank control; details: 150 g a.i./ha, visual inspection 21 days after treatment
Method: as §1, §2, §3, §4, §5, §6, §7, §8, §9

Digitaria sanguinalis [5] = assay: as above; parameters: key: 1-9 levels; higher = more weed remaining vs blank control; details: 150 g a.i./ha, visual inspection 21 days after treatment
Method: as §1, §2, §3, §4, §5, §6, §7, §8, §9

Humulus scandens [6] = assay: as above; details: 150 g a.i./ha, visual inspection 21 days after treatment
Method: as §1, §2, §3, §4, §5, §6, §7, §8, §9

Amaranthus retroflexus [7] = assay: Herbicidal activity test for indoor post-emergence spraying on stems and leaves; parameters: key: grade level by weed remaining vs blank control, e.g. 5 = 10.1-15%; details: 150 g a.i./ha, visual inspection 21 days after treatment
Method: (§10) The post-emergence herbicidal activity test was performed with some of the N-benzylbenzamide-based compounds of general formula I or II with reference to the method of NY/T 1155.4-2006. […] After the sowing, the weed was moved to a greenhouse for regular cultivation. […] Then, the results were investigated by visual inspection 21 days after the treatments. […] Level 5: equivalent to 10.1 to 15% of the weed in the blank control area; Level 6: equivalent to 15.1 to 25% of the weed in the blank control area; Level 7: equivalent to 25.1 to 35% of the weed in the blank control area; Level 8: equivalent to 35.1 to 67.5% of the weed in the blank control area; and […]

Barnyard grass [8] = assay: as above; parameters: key: grade level by weed remaining vs blank control, e.g. 5 = 10.1-15%; details: 150 g a.i./ha, visual inspection 21 days after treatment
Method: as §10

Digitaria sanguinalis [9] = assay: as above; parameters: key: grade level by weed remaining vs blank control, e.g. 5 = 10.1-15%; details: 150 g a.i./ha, visual inspection 21 days after treatment
Method: as §10

Humulus scandens [10] = assay: as above; parameters: key: grade level by weed remaining vs blank control, e.g. 5 = 10.1-15%; details: 150 g a.i./ha, visual inspection 21 days after treatment
Method: as §10

Piemarker [11] = assay: as above; parameters: key: grade level by weed remaining vs blank control, e.g. 5 = 10.1-15%; details: 150 g a.i./ha, visual inspection 21 days after treatment
Method: as §10

green bristlegrass [12] = assay: as above; parameters: key: grade level by weed remaining vs blank control, e.g. 5 = 10.1-15%; details: 150 g a.i./ha, visual inspection 21 days after treatment
Method: as §10

Broadleaf weed = assay: Post-emergence herbicidal activity test in a paddy field; parameters: key: level scale; higher level = more weed left vs blank control; details: 150 g a.i./ha (penoxsulam control 250 g(a.i.)/h)
Method: (§11) The post-emergence herbicidal activity test was performed in a paddy field with some of the N-benzylbenzamide-based compounds of general formula I or II with reference to the method of GB/T 17980.40-2000. […] Spray treatments were performed in the stage where 4 leaves to 5 leaves were grown for the rice seedlings which was about 1 month after the sowing. Representative compounds in the examples were used to prepare emulsifiable concentrates (10%), and spray treatments were performed with the concentrates in water at a dosage of 150 g(a.i.)/ha, and repeated 4 times for each treatment, and the area was 50 m^2. 25 g/L of penoxsulam suspension was used as a control agent and applied at a dosage of 250 g(a.i.)/h. The results were investigated by a value estimating survey method 15 days and 30 days after the treatments. The relative weed population quantities were estimated by comparing each agent treated area with an adjacent blank control area, and the results of which were investigated with the following grading standard method using the overall coverage of the weed population as an indicator.
as §2, §3, §4, §5, §6, §7, §8, §9

Cyperaceae = assay: as above; parameters: key: level scale; higher level = more weed left vs blank control; details: 150 g a.i./ha (penoxsulam control 250 g(a.i.)/h)
Method: as §11, §2, §3, §4, §5, §6, §7, §8, §9

Gramineae = assay: as above; parameters: key: level scale; higher level = more weed left vs blank control; details: 150 g a.i./ha (penoxsulam control 250 g(a.i.)/h)
Method: as §11, §2, §3, §4, §5, §6, §7, §8, §9

Acalypha australis = assay: Field test for weed control in a corn field; details: for Post-emergence weed control effect, Acalypha australis: 150 g a.i./ha, after treatment
Method: (§12) The weed control efficacy field test was performed in a corn field with some of the N-benzylbenzamide-based compounds of general formula I or II with reference to the method of GB/T 17980.42-2000. […] Spray treatments were performed in the stage where 2 leaves to 5 leaves were grown for the corns after the sowing. Representative compounds in the examples were used to prepare emulsifiable concentrates (10%), and spray treatments were performed with the concentrates in water at a dosage of 150 g(a.i.)/ha, and repeated 4 times for each treatment, and the area was 20 m^2. Oil dispersion with 25% of mesotrione was used as a control agent and applied at a dosage of 150 g(a.i.)/h. […] The herbicidal activities of the agents were evaluated on a scale of 1-9 levels according to the symptoms and severity of damage to the test weeds.
as §2, §3, §4, §5, §6, §7, §8, §9

Amaranthus retroflexus [13] = assay: Field test for weed control in a corn field; details: for Post-emergence weed control effect, Amaranthus retroflexus: 150 g a.i./ha, 30 days after treatment
Method: as §12, §2, §3, §4, §5, §6, §7, §8, §9

Barnyard grass [14] = assay: Field test for weed control in a corn field; details: for Post-emergence weed control effect, Barnyard grass: 150 g a.i./ha, 30 days after treatment
Method: as §12, §2, §3, §4, §5, §6, §7, §8, §9

Chenopodium album = assay: Field test for weed control in a corn field; details: for Post-emergence weed control effect, Chenopodium album: 150 g a.i./ha, after treatment
Method: as §12, §2, §3, §4, §5, §6, §7, §8, §9

Convolvulus arvensis = assay: Field test for weed control in a corn field; details: for Post-emergence weed control effect, Convolvulus arvensis: 150 g a.i./ha, after treatment
Method: as §12, §2, §3, §4, §5, §6, §7, §8, §9

Digitaria sanguinalis [15] = assay: Field test for weed control in a corn field; details: for Post-emergence weed control effect, Digitaria sanguinalis: 150 g a.i./ha, after treatment
Method: as §12, §2, §3, §4, §5, §6, §7, §8, §9

Portulaca oleracea = assay: Field test for weed control in a corn field; details: for Post-emergence weed control effect, Portulaca oleracea: 150 g a.i./ha, after treatment
Method: as §12, §2, §3, §4, §5, §6, §7, §8, §9

Solanum nigrum = assay: Field test for weed control in a corn field; details: for Post-emergence weed control effect, Solanum nigrum: 150 g a.i./ha, 30 days after treatment
Method: as §12, §2, §3, §4, §5, §6, §7, §8, §9

goosegrass = assay: Field test for weed control in a corn field; details: for Post-emergence weed control effect, Goose grass: 150 g a.i./ha, after treatment
Method: as §12, §2, §3, §4, §5, §6, §7, §8, §9

green bristlegrass [16] = assay: Field test for weed control in a corn field; details: for Post-emergence weed control effect, Green bristlegrass: 150 g a.i./ha, after treatment
Method: as §12, §2, §3, §4, §5, §6, §7, §8, §9

nutgrass flatsedge = assay: Field test for weed control in a corn field; details: for Post-emergence weed control effect, Nutgrass flatsedge: 150 g a.i./ha, after treatment
Method: as §12, §2, §3, §4, §5, §6, §7, §8, §9

[17] = 150 g(a.i.)/ha, 21 days after treatments

SMILES | Herbicidal Activity Barnyard grass (Barnyard grass [1]) | Herbicidal Activity Piemarker (Piemarker [2]) | Herbicidal Activity Green bristlegrass (green bristlegrass [3]) | Herbicidal Activity Amaranthus retroflexus (Amaranthus retroflexus [4]) | Herbicidal Activity Digitaria sanguinalis (Digitaria sanguinalis [5]) | Herbicidal Activity Humulus scandens (Humulus scandens [6]) | Herbicidal Activity Amaranthus retroflexus (Amaranthus retroflexus [7]) | Herbicidal Activity Barnyard grass (Barnyard grass [8]) | Herbicidal Activity Digitaria sanguinalis (Digitaria sanguinalis [9]) | Herbicidal Activity Humulus scandens (Humulus scandens [10]) | Herbicidal Activity Piemarker (Piemarker [11]) | Herbicidal Activity Green bristlegrass (green bristlegrass [12]) | Herbicidal activity 15 days after treatment Broadleaf weed (Broadleaf weed) | Herbicidal activity 30 days after treatment Broadleaf weed (Broadleaf weed) | Herbicidal activity 15 days after treatment Cyperaceae (Cyperaceae) | Herbicidal activity 30 days after treatment Cyperaceae (Cyperaceae) | Herbicidal activity 15 days after treatment Gramineae (Gramineae) | Herbicidal activity 30 days after treatment Gramineae (Gramineae) | Post-emergence weed control effect, Acalypha australis (Acalypha australis) | Post-emergence weed control effect, Amaranthus retroflexus (Amaranthus retroflexus [13]) | other results
COc1ccccc1C(=O)NCc1ccc(F)cc1 [Compound A02] | 1 | 2 (equivalent to 0 to 2.5% of the weed in the blank control area) | 2 (equivalent to 0 to 2.5% of the weed in the blank control area) | 3 (equivalent to 2.6 to 5% of the weed in the blank control area) | 1 | 4 (equivalent to 5.1 to 10% of the weed in the blank control area) | 1 | 1 | 1 | 1 | 1 | 2 (equivalent to 0 to 2.5% of the weed in the blank control area) | 1 | 1 | 1 | 1 | 1 | 1 | 1 | 1 | controlling effect on Acalypha australis (Acalypha australis; [17]): 1; controlling effect on Amaranthus retroflexus (Amaranthus retroflexus [13]; [17]): 1; Post-emergence weed control effect, Barnyard grass (Barnyard grass [14]): 1; controlling effect on barnyard grass (Barnyard grass [14]; [17]): 1; Post-emergence weed control effect, Chenopodium album (Chenopodium album): 1; controlling effect on Chenopodium album (Chenopodium album; [17]): 1; Post-emergence weed control effect, Convolvulus arvensis (Convolvulus arvensis): 1; controlling effect on Convolvulus arvensis (Convolvulus arvensis; [17]): 1; Post-emergence weed control effect, Digitaria sanguinalis (Digitaria sanguinalis [15]): 1; controlling effect on Digitaria sanguinalis (Digitaria sanguinalis [15]; [17]): 1; Post-emergence weed control effect, Portulaca oleracea (Portulaca oleracea): 1; controlling effect on Portulaca oleracea (Portulaca oleracea; [17]): 1; Post-emergence weed control effect, Solanum nigrum (Solanum nigrum): 1; controlling effect on Solanum nigrum (Solanum nigrum; [17]): 1; Post-emergence weed control effect, Goose grass (goosegrass): 1; controlling effect on goosegrass (goosegrass; [17]): 1; Post-emergence weed control effect, Green bristlegrass (green bristlegrass [16]): 1; controlling effect on green bristlegrass (green bristlegrass [16]; [17]): 1; Post-emergence weed control effect, Nutgrass flatsedge (nutgrass flatsedge): 1; controlling effect on nutgrass flatsedge (nutgrass flatsedge; [17]): 1
COc1ccccc1C(=O)NCc1cc(F)cc(F)c1 [Compound A03, N-(3,5 difluorobenzyl)-2-methoxybenzamide] | 1 | 1 | 1 | 1 | 2 (equivalent to 0 to 2.5% of the weed in the blank control area) | 2 (equivalent to 0 to 2.5% of the weed in the blank control area) | 1 | 1 | 2 (equivalent to 0 to 2.5% of the weed in the blank control area) | 1 | 1 | 1 | 1 | 2 (equivalent to 0 to 2.5% of the weed in the blank control area) | 2 (equivalent to 0 to 2.5% of the weed in the blank control area) | 1 | 2 (equivalent to 0 to 2.5% of the weed in the blank control area) | 1 | 2 (equivalent to 0 to 2.5% of the weed in the blank control area) | 1 | Post-emergence weed control effect, Barnyard grass (Barnyard grass [14]): 1; Post-emergence weed control effect, Chenopodium album (Chenopodium album): 1; Post-emergence weed control effect, Convolvulus arvensis (Convolvulus arvensis): 1; Post-emergence weed control effect, Digitaria sanguinalis (Digitaria sanguinalis [15]): 1; Post-emergence weed control effect, Portulaca oleracea (Portulaca oleracea): 1; Post-emergence weed control effect, Solanum nigrum (Solanum nigrum): 1; Post-emergence weed control effect, Goose grass (goosegrass): 2 (equivalent to 0 to 2.5% of the weed in the blank control area); Post-emergence weed control effect, Green bristlegrass (green bristlegrass [16]): 2 (equivalent to 0 to 2.5% of the weed in the blank control area); Post-emergence weed control effect, Nutgrass flatsedge (nutgrass flatsedge): 2 (equivalent to 0 to 2.5% of the weed in the blank control area)
